Experimental data reported in ChEMBL document CHEMBL4483862, “Open-source discovery of chemical leads for next-generation chemoprotective antimalarials” (2018).

Tested on: Plasmodium berghei
Test: Luciferase/luciferin-expressing antifolate-resistant parasites were used to infect a culture of HepG2 cells that were pre-incubated with compounds. Infected hepatocytes emit light due to the luciferase reaction. Assay results are presented as the percent inhibition of light emission compared to control. […]
Type: functional
Conditions: sporozoite; for IC90: read-out: LUCIFERASE INFECTION ASSAY - IC90

SMILES | IC90 [µM] | further results
Cc1ccc2[nH]c3c(c2c1)CCCC3NCCCN(C)C (centres undefined) | > 11.5 | IC50 (HEPG2TOX_HILL_SLOPE 41.7, HEPG2TOX_R_SQUARED 0.689, PBLUC_HILL_SLOPE 2.08, PBLUC_R_SQUARED 0.555, read-out: LUCIFERASE INFECTION ASSAY - IC50): 4.94 µM
O=C1C=CC(=O)N1Cc1cccs1 | 7.49 | IC50 (HEPG2TOX_HILL_SLOPE 35.1, HEPG2TOX_R_SQUARED 0.828, PBLUC_HILL_SLOPE 12.7, PBLUC_R_SQUARED 0.168, read-out: LUCIFERASE INFECTION ASSAY - IC50): 6.3 µM
Clc1ccc(Cl)c(-c2ccc(CNCCN3CCNCC3)o2)c1 | 7.07 | IC50 (HEPG2TOX_HILL_SLOPE 36.7, HEPG2TOX_R_SQUARED 0.263, PBLUC_HILL_SLOPE 4.39, PBLUC_R_SQUARED 0.663, read-out: LUCIFERASE INFECTION ASSAY - IC50): 4.28 µM
C=C(C)CN(CC)c1nc(N)c(C#N)c(C(C#N)Cc2ccc(C)cc2)c1C#N (centres undefined) | 8.18 | IC50 (HEPG2TOX_HILL_SLOPE 73.4, HEPG2TOX_R_SQUARED 0.557, PBLUC_HILL_SLOPE 3.82, PBLUC_R_SQUARED 0.311, read-out: LUCIFERASE INFECTION ASSAY - IC50): 4.6 µM
O=C(Nc1ccc(Cl)cc1)Nc1ccc2c(c1)no[n+]2[O-] | 8.03 | IC50 (HEPG2TOX_HILL_SLOPE 58.7, HEPG2TOX_R_SQUARED 0.822, PBLUC_HILL_SLOPE 3.98, PBLUC_R_SQUARED 0.47, read-out: LUCIFERASE INFECTION ASSAY - IC50): 4.62 µM
N#Cc1ccc(NC(=O)Cn2ncc(Cl)c(Cl)c2=O)cc1 | 5.23 | IC50 (HEPG2TOX_HILL_SLOPE 73.2, HEPG2TOX_R_SQUARED 0.451, PBLUC_HILL_SLOPE 8.64, PBLUC_R_SQUARED 0.375, read-out: LUCIFERASE INFECTION ASSAY - IC50): 4.06 µM
N#Cc1ccc(C(=O)Nc2ccc(Br)c(C(F)(F)F)c2)cc1 | 9.89 | IC50 (HEPG2TOX_HILL_SLOPE 28, HEPG2TOX_R_SQUARED 0.813, PBLUC_HILL_SLOPE 18.1, PBLUC_R_SQUARED 0.807, read-out: LUCIFERASE INFECTION ASSAY - IC50): 8.76 µM
O=C(Nc1ccc(Cl)cc1)n1ccc(/C=C/c2ncc(C(F)(F)F)cc2Cl)n1 | > 7.72 | IC50 (HEPG2TOX_HILL_SLOPE 28.5, HEPG2TOX_R_SQUARED 0.883, PBLUC_HILL_SLOPE 15.5, PBLUC_R_SQUARED 0.352, read-out: LUCIFERASE INFECTION ASSAY - IC50): 7.23 µM
CCC1CCCCN1C(=O)CSC(=Nc1ccccc1F)C(C#N)c1nc2ccccc2s1 (centres undefined) | 9.73 | IC50 (HEPG2TOX_HILL_SLOPE 76.7, HEPG2TOX_R_SQUARED 0.475, PBLUC_HILL_SLOPE 22.7, PBLUC_R_SQUARED 0.0851, read-out: LUCIFERASE INFECTION ASSAY - IC50): 8.83 µM
CCOC(=O)c1c(C)[nH]c(C(=O)C(C)OC(=O)c2ccc(S(=O)(=O)N(C)c3ccccc3OC)cc2)c1C (centres undefined) | > 10 | IC50 (HEPG2TOX_HILL_SLOPE 113, HEPG2TOX_R_SQUARED 0.62, read-out: LUCIFERASE INFECTION ASSAY - IC50): > 10 µM
Cc1cccc(C(=O)NCC(=O)Nc2ncc(C)s2)c1 | > 10 | IC50 (HEPG2TOX_HILL_SLOPE 123, HEPG2TOX_R_SQUARED 0.298, PBLUC_HILL_SLOPE 16, PBLUC_R_SQUARED 0.209, read-out: LUCIFERASE INFECTION ASSAY - IC50): 9.16 µM
O=C(Cn1ncc(Cl)c(Cl)c1=O)N(CCc1ccccc1)Cc1ccccc1 | 6.37 | IC50 (HEPG2TOX_HILL_SLOPE 33, HEPG2TOX_R_SQUARED 0.912, PBLUC_HILL_SLOPE 70.8, PBLUC_R_SQUARED 0.26, read-out: LUCIFERASE INFECTION ASSAY - IC50): 6.18 µM
Clc1nc2ccc3nsnc3c2nc1Cl | 3.65 | IC50 (HEPG2TOX_HILL_SLOPE 109, HEPG2TOX_R_SQUARED 0.525, PBLUC_HILL_SLOPE 3.55, PBLUC_R_SQUARED 0.399, read-out: LUCIFERASE INFECTION ASSAY - IC50): 1.96 µM
Cc1ccc(C(CN2CCOCC2)NC(=O)c2occc2-c2ccccc2)cc1 (centres undefined) | > 10 | IC50 (HEPG2TOX_HILL_SLOPE 140, HEPG2TOX_R_SQUARED 0.302, PBLUC_HILL_SLOPE 0.784, PBLUC_R_SQUARED 0.306, read-out: LUCIFERASE INFECTION ASSAY - IC50): 8.27 µM
CCn1nnnc1Sc1nc(C)nc2sc3c(c12)CCC3 | 3.73 | IC50 (HEPG2TOX_HILL_SLOPE 68.5, HEPG2TOX_R_SQUARED 0.626, PBLUC_HILL_SLOPE 11, PBLUC_R_SQUARED 0.226, read-out: LUCIFERASE INFECTION ASSAY - IC50): 3.05 µM
O=C(CN1CC=C(c2c[nH]c3ccccc23)CC1)Nc1ccccc1OC(F)F | > 10 | IC50 (HEPG2TOX_HILL_SLOPE 99.6, HEPG2TOX_R_SQUARED 0.512, PBLUC_HILL_SLOPE 10, PBLUC_R_SQUARED 0.0817, read-out: LUCIFERASE INFECTION ASSAY - IC50): > 10 µM

SMILES | IC90 [µM] | further results
COc1ccc(-c2nc3ccc(NC(=O)Nc4ccc(C)cc4)cn3n2)cc1 | 7.53 | IC50 (HEPG2TOX_HILL_SLOPE 50, HEPG2TOX_R_SQUARED 0.291, PBLUC_HILL_SLOPE 5.1, PBLUC_R_SQUARED 0.322, read-out: LUCIFERASE INFECTION ASSAY - IC50): 4.9 µM
CC1CCC/C(=C(/C#N)c2nc(-c3ccccc3O)cs2)C1 (centres undefined) | 5.31 | IC50 (HEPG2TOX_HILL_SLOPE 34.1, 11.7, HEPG2TOX_R_SQUARED 0.352, 0.945, PBLUC_HILL_SLOPE 13.4, PBLUC_R_SQUARED 0.235, read-out: LUCIFERASE INFECTION ASSAY - IC50): 4.51 µM
CCCCSc1scc(-c2ccc(Cl)c(Cl)c2)c1C#N | > 9.64 | IC50 (HEPG2TOX_HILL_SLOPE 94.8, HEPG2TOX_R_SQUARED 0.896, read-out: LUCIFERASE INFECTION ASSAY - IC50): > 9.64 µM
c1ccc(Oc2ccccc2-c2cnc3c(NCCc4cccnc4)nccn23)cc1 | 7.62 | IC50 (HEPG2TOX_HILL_SLOPE 47.6, HEPG2TOX_R_SQUARED 0.873, PBLUC_HILL_SLOPE 7.25, PBLUC_R_SQUARED 0.536, read-out: LUCIFERASE INFECTION ASSAY - IC50): 5.63 µM
CCN1C(=O)N(Cc2ccccn2)C(=O)C12CCN(Cc1ccc3c(c1)Cc1ccccc1-3)CC2 | 6.49 | IC50 (HEPG2TOX_HILL_SLOPE 46.6, HEPG2TOX_R_SQUARED 0.935, PBLUC_HILL_SLOPE 4.5, PBLUC_R_SQUARED 0.25, read-out: LUCIFERASE INFECTION ASSAY - IC50): 3.98 µM
O=C(Cn1ncc(Cl)c(Cl)c1=O)Nc1ccc(F)c(F)c1F | 9.46 | IC50 (HEPG2TOX_HILL_SLOPE 271, HEPG2TOX_R_SQUARED 0.59, PBLUC_HILL_SLOPE 12.5, PBLUC_R_SQUARED 0.106, read-out: LUCIFERASE INFECTION ASSAY - IC50): 7.93 µM
COc1ccc(-c2cc(CN(C)c3ccc(S(=O)(=O)NC(C)(C)C)cc3[N+](=O)[O-])on2)cc1 | 4.2 | IC50 (HEPG2TOX_HILL_SLOPE 80.3, HEPG2TOX_R_SQUARED 0.674, PBLUC_HILL_SLOPE 12.7, PBLUC_R_SQUARED 0.427, read-out: LUCIFERASE INFECTION ASSAY - IC50): 3.54 µM
CCN(CC)c1ccc(/C=C(\C#N)c2nc3c(s2)CC(C)CC3)cc1 (centres undefined) | > 10 | IC50 (HEPG2TOX_HILL_SLOPE 34.4, HEPG2TOX_R_SQUARED 0.353, PBLUC_HILL_SLOPE 1.55, PBLUC_R_SQUARED 0.645, read-out: LUCIFERASE INFECTION ASSAY - IC50): 4.58 µM
O=C(NNc1ccccc1)c1cccs1 | 7.33 | IC50 (HEPG2TOX_HILL_SLOPE 91.6, HEPG2TOX_R_SQUARED 0.623, PBLUC_HILL_SLOPE 5.23, PBLUC_R_SQUARED 0.266, read-out: LUCIFERASE INFECTION ASSAY - IC50): 4.82 µM
COc1ccc(CCN2C(=O)N(CC(C)C)C(=O)C23CCN(C2CCc4ccccc4C2)CC3)cc1 (centres undefined) | 2.72 | IC50 (HEPG2TOX_HILL_SLOPE 52.5, HEPG2TOX_R_SQUARED 0.896, PBLUC_HILL_SLOPE 13.1, PBLUC_R_SQUARED 0.487, read-out: LUCIFERASE INFECTION ASSAY - IC50): 2.3 µM
Cc1ccc(C(CCNCc2ccc(F)cc2)c2ccco2)cc1 (centres undefined) | 0.384 | IC50 (HEPG2TOX_HILL_SLOPE 46.4, HEPG2TOX_R_SQUARED 0.442, PBLUC_HILL_SLOPE 99.4, PBLUC_R_SQUARED 0.619, read-out: LUCIFERASE INFECTION ASSAY - IC50): 0.376 µM
COC(=O)c1ccc(/C=C/C(=O)c2ccccc2F)cc1 | > 10 | IC50 (HEPG2TOX_HILL_SLOPE 28.5, HEPG2TOX_R_SQUARED 0.619, read-out: LUCIFERASE INFECTION ASSAY - IC50): > 10 µM
Cc1cccc(C=C(C(=O)NC(C)c2ccccc2)C(=O)NC(C)c2ccccc2)c1 (centres undefined) | 8.3 | IC50 (HEPG2TOX_HILL_SLOPE 105, HEPG2TOX_R_SQUARED 0.565, PBLUC_HILL_SLOPE 4.68, PBLUC_R_SQUARED 0.0675, read-out: LUCIFERASE INFECTION ASSAY - IC50): 5.19 µM
COc1ccc(CNCCC(c2ccc(F)cc2)c2ccco2)cc1 (centres undefined) | 1.22 | IC50 (HEPG2TOX_HILL_SLOPE 73.6, HEPG2TOX_R_SQUARED 0.521, PBLUC_HILL_SLOPE 15.7, PBLUC_R_SQUARED 0.627, read-out: LUCIFERASE INFECTION ASSAY - IC50): 1.06 µM
COc1ccc2c(C)nc(Nc3nc(O)c4ccccc4n3)nc2c1 | 3.1 | IC50 (HEPG2TOX_HILL_SLOPE 241, HEPG2TOX_R_SQUARED 0.475, PBLUC_HILL_SLOPE 24.4, PBLUC_R_SQUARED 0.363, read-out: LUCIFERASE INFECTION ASSAY - IC50): 2.83 µM
Cc1oc2c(c1C(=O)NCC1CCCO1)C(=O)c1ccccc1C2=O (centres undefined) | 0.328 | IC50 (HEPG2TOX_HILL_SLOPE 84.1, HEPG2TOX_R_SQUARED 0.355, PBLUC_HILL_SLOPE 3.6, PBLUC_R_SQUARED 0.607, read-out: LUCIFERASE INFECTION ASSAY - IC50): 0.178 µM
